Target: T1, 5-HT6 receptor (Homo sapiens, UniProt P50406)
T1 construct: expressed in transfected cells
Experiment: Functional assay: serotonin-induced adenyl cyclase activity (cAMP) in HEK 293 cells
Format: cell-based
Details: HEK 293 cells stably expressing human 5HT6 receptor; test compound (100 nM and 10 μM) along with serotonin; cAMP by EIA
Procedure: The 5HT6 receptor responds to serotonin and other agonists by increasing adenyl cyclase mediated production of cyclic AMP. Particular test compounds were assayed for their effect on adenyl cyclase activity using the procedure described below.
Compounds acting as antagonists at the 5HT6 receptor will antagonize the agonist effect of serotonin and thus, will block the serotonin-induced increase in adenyl cyclase activity.
HEK 293 cells stably expressing the human 5HT6 receptor were plated in 6 well plates in DMEM (Dulbecco's Modified Eagle Medium)/F12 (Nutrient Mixture F12—Ham) media with 10% FCS (fetal calf serum) and G418 (Geneticen Disulfate, 500 ug/ml), and incubated at 37° C. in a CO2 incubator. The cells were allowed to grow to about 70% confluence before use in the assay.
The culture medium of each well was removed, and the wells were washed once with serum free media. Then 2 ml of SFM+IBMX medium (SFM with 0.5 mM IBMX, 3-isobutyl-1-methylxanthine, 0.1% ascorbic acid and 10 mM pargyline) was added to each well and the wells were incubated at 37° C. for 10 min. Following incubation, the SFM+IBMX medium was removed from each well and fresh SFM+IBMX media was added to the wells separately with one of a) serotonin (1 μM final concentration); b) test compound (100 nM and 10 μM, to test for agonist activity); and c) test compound (100 nM and 10 μM) along with serotonin ([…], to test for antagonist activity). Basal adenyl cyclase activity was determined from wells with only SFM+IBMX media added.
The cells were then incubated at 37° C. for 30 minutes in a CO2 incubator. […] The pellets were discarded and the supernatants were stored at 4° C. until assayed for cAMP concentration. cAMP content for each extract was determined in duplicate by EIA (enzyme-immunoassay) using the Amersham Biotrak cAMP EIA kit (Amersham RPN 225). Final results were expressed as %basal response for agonists and % reversal of serotonin response for antagonists.
The total stimulation of adenyl cyclase by serotonin (So) was determined as the difference in concentration of cAMP in the serotonin-treated cells (Cd) and the basal-treated cells (Cf).
The net stimulation (S) of basal adenyl cyclase by an agonist test compound was determined as the difference in cAMP concentration in the drug-treated cell (C) and the basal-treated cells (Cf).
The net stimulation (Ss) of basal adenyl cyclase by serotonin in the presence of an antagonist test compound was determined as the difference in cAMP concentration in the serontonin-drug-treated cells (Cs) and the basal-treated cells (Cf).
The ability of the antagonist test compound to reverse the serotonin stimuation of adenyl cyclase activity (% reversal, %R) was determined by the formula: […]

T1 sequence (P50406 whole entry): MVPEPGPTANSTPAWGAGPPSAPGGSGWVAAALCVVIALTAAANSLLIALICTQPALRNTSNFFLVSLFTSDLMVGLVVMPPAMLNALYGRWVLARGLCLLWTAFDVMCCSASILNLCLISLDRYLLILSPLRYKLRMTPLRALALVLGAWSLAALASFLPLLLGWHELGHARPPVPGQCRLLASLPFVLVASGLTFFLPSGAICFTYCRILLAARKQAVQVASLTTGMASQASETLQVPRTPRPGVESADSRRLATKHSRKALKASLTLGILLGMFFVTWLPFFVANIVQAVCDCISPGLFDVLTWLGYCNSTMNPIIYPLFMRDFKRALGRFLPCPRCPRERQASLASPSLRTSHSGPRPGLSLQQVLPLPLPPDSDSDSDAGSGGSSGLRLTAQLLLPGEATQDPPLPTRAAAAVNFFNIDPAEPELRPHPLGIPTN

| Compound | reversal of serotonin stimulation of adenyl cyclase (5-HT6 receptor antagonist behaviour) |
| --- | --- |
| O=S(=O)(c1cccc2ccccc12)n1cc(C2=CCN3CCCC3C2)c2cnccc21 (stereo not shown) [3-(1,2,3,5,8,8a-Hexahydro-7-indolizinyl)-1-(1-naphthalenesulfonyl)-5-azaindole] | able to reverse the serotonin stimulation of adenyl cyclase |
| O=S(=O)(c1cccc2ccccc12)n1cc(C2=CCN3CCCC3C2)c2cccnc21 (stereo not shown) [3-(1,2,3,5,8,8a-Hexahydro-7-indolizinyl)-1-(1-naphthalenesulfonyl)-7-azaindole] | able to reverse the serotonin stimulation of adenyl cyclase |
| O=S(=O)(c1ccccc1)n1cc(C2=CCN3CCCC3C2)c2cnccc21 (stereo not shown) [3-(1,2,3,5,8,8a-Hexahydro-7-indolizinyl)-1-benzenesulfonyl-5-azaindole] | able to reverse the serotonin stimulation of adenyl cyclase |
| O=S(=O)(c1ccccc1)n1cc(C2=CCN3CCCC3C2)c2cccnc21 (stereo not shown) [3-(1,2,3,5,8,8a-Hexahydro-7-indolizinyl)-1-benzenesulfonyl-7-azaindole] | able to reverse the serotonin stimulation of adenyl cyclase |

Target: T1, 5-HT6 receptor
Experiment: Binding affinity for the 5-HT6 receptor (3H-LSD displacement, membranes of recombinant cells)
Details: 100 nM of test compound; 3H-LSD (2 nM); 60 minute incubation at 37° C.; read-out: percent inhibition of binding of the radioligand for the 5-HT6 receptor
Procedure: All of the compounds of the invention were evaluated using cell types receptive specifically to the 5-HT6 receptor (for cloning and characterization of the human 5-HT6 receptor see Kohen, et al. J. Neurochemistry, 66, 1996: 47-56). The assay protocol generally entailed the incubation of membranes prepared from cells expressing the 5-HT6 receptor with ^3H-LSD (2 nM). Increasing levels of the test compound were incubated with the radioligand and the membrane homogenates prepared from the recombinant cells. After a 60 minute incubation at 37° C., the incubation was terminated by vacuum filtration. The filters were washed with buffer and the filters were counted for radioactivity using liquid scintillation spectrometry. The affinity of the test compound for the 5-HT6 receptor was determined by computer-assisted analysis of the data and determining the amount of the compound necessary to inhibit 50% of the binding of the radioligand to the receptor. Concentrations ranging from 10^−11 M to 10^−5 M of the test compound were evaluated. […] Affinity for the 5-HT6 receptor is expressed as the amount (in percent) of binding of the radioligand that is inhibited in the presence of 100 nM of test compound. A greater percent inhibition indicates greater affinity for the 5-HT6 receptor.

| Compound | inhibition at 0.1 µM [%] |
| --- | --- |
| O=C(c1c(Cl)cccc1Cl)n1cc(C2=CCN3CCCC3C2)c2cccnc21 (stereo not shown) [1-(2,6-Dichlorobenzoyl)-3-(1,2,3,5,8,8a-hexahydro-7-indolizinyl)-7-azaindole] | > 80 |
| O=S(=O)(c1cccc2ccccc12)n1cc(C2=CCN3CCCC3C2)c2cnccc21 (stereo not shown) [3-(1,2,3,5,8,8a-Hexahydro-7-indolizinyl)-1-(1-naphthalenesulfonyl)-5-azaindole] | > 95 |
| O=S(=O)(c1ccc2ccccc2c1)n1cc(C2=CCN3CCCC3C2)c2cccnc21 (stereo not shown) [3-(1,2,3,5,8,8a-Hexahydro-7-indolizinyl)-1-(2-naphthalenesulfonyl)-7-azaindole] | > 90 |
| Cc1ccc(S(=O)(=O)n2cc(C3=CCN4CCCC4C3)c3cnccc32)cc1 (stereo not shown) [3-(1,2,3,5,8,8a-Hexahydro-7-indolizinyl)-1-(4-methylbenzenesulfonyl)-5-azaindole] | > 80 |
| O=S(=O)(c1ccccc1)n1cc(C2=CCN3CCCC3C2)c2cnccc21 (stereo not shown) [3-(1,2,3,5,8,8a-Hexahydro-7-indolizinyl)-1-benzenesulfonyl-5-azaindole] | > 90 |

Further lines, results first:

| inhibition at 0.1 µM [%] | Compound |
| --- | --- |
| > 80 | O=S(=O)(c1cccc2ccccc12)n1cc(C2CCN3CCCC3C2)c2ccncc21 (single isomer, unassigned) [3-(Octahydro-7-indolizinyl)-1-(1-naphthalenesulfonyl)-6-azaindole] |
| > 80 | O=S(=O)(c1ccc2ccccc2c1)n1cc(C2CCN3CCCC3C2)c2cccnc21 (single isomer, unassigned) [3-(Octahydro-7-indolizinyl)-1-(2-naphthalenesulfonyl)-7-azaindole] |
| > 80 | O=S(=O)(c1cccc2ccccc12)n1cc(C2CCN3CCCC3C2)c2ncccc21 (stereo not shown) [3-(Octahydro-7-indolizinyl)-1-(1-naphthalenesulfonyl)-4-azaindole] |
| > 95 | O=S(=O)(c1ccc2ccccc2c1)n1cc(C2CCN3CCCC3C2)c2ncccc21 (stereo not shown) [3-(Octahydro-7-indolizinyl)-1-(2-naphthalenesulfonyl)-4-azaindole] |

From patent publication US20010049441A1, “Azaindoles having serotonin receptor affnity” (Allelix Biopharmaceuticals, Inc., priority 1999, published 2001)
